According to patent publication US12357603B2, “Acyl sulfonamides for treating cancer” (Bayer Aktiengesellschaft, priority 2019, dated 2025):

Tests used:
[1] = system: ZR-75-1 cells; assay: Proliferation assay ZR-75-1 (Alamar Blue, 144 h); format: cell-based; conditions: Homo sapiens, ZR-75-1, 144 h, arithmetic mean, read-out: ZR75-1 proliferation assay, EC50 [M] (arithmetic mean)
Excerpt: (§1) Proliferation Assays for Compound Characterization
(§2) For compound characterization cell survival assays were routinely run in two cell lines. ZR-75-1 is a breast carcinoma cell line containing a focal KAT6A amplification and high KAT6A protein expression. Proliferation of this cell line is inhibited upon treatment with KAT6A inhibitors. As a negative control cell line MDA-MB-436 were used. These cells carry a […] deletion of the KAT6A gene, have a low KAT6A protein expression and are not growth inhibited upon treatment with KAT6A inhibitors.
(§3) For measurements cell lines were plated at the below indicated concentration per […] in 96-well plates in a humidified incubator at 37° C. and 5% CO2.
ZR-75-1 (ATCC, CRL-1500; breast carcinoma); 3000 cells per well; culture medium: RPMI 1640 (Biochrom #FG 1215) medium containing 2.5% FBS (Biochrom #S0615).
(§4) 24 hours later, cells were treated with compounds (stock solution, 10 mM in DMSO) using the HP D300 Digital Dispenser in a concentration range of 2.0×10E-5 M to 2.0×10E-9 M in a single-dot curve with 9 dilutions and a DMSO concentration of 0.2%. Each sample was prepared as triplicate and rim wells were excluded. Plates were incubated at 37° C. and 5% CO2 for 144 h. Cell viability was measured by adding 10 μL of Alamar Blue Reagent (Invitrogen #DAL 1100) and plates were incubated for 2 h at 37° C. and 5% CO2. Fluorescence was measured at 590 nm wavelength with a Tecan Spark or Victor X3 MTP-Reader (PerkinElmer).

[2] = system: ESR1 transcription (luciferase signal in MVLN cells); assay: Repression of ESR1 transcription, luciferase reporter in MVLN cells; format: cell-based; conditions: Homo sapiens, MVLN, inhibition of luciferase signal in MVLN cells; arithmetic mean
Method in brief: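 MVLN cells (constitutive ER, stably carrying a Vitellogenin A2 hormone-responsive element–luciferase reporter) treated in duplicate; luciferase read after 24 h. Cell density checked by Alamar Blue fluorescence (530/590 nm) after 2 h to exclude cell-loss effects.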

[3] = system: MDA-MB-436 cells; assay: Proliferation assay MDA-MB-436, negative control cell line (Alamar Blue, 144 h); format: cell-based; conditions: Homo sapiens, MDA-MB-436, 144 h, arithmetic mean
Excerpt: as §1, §2, §3
MDA-MB-436 (CLS, 300278; breast adenocarcinoma); 3000 cells per well; culture medium: DMEM/Ham's F12 (Biochrom #FG 4815) medium containing 2.5% FBS (Biochrom #S0615).
as §4

[4] = biological target: Recombinant human His-tagged Kat6a protein (amino acids 194-810) (Homo sapiens (Human), UniProt Q92794); assay: Kat6a activity assay (TR-FRET, acetylation of biotinylated Histone-H4-derived peptide); format: biochemical; conditions: 60 mins at 22° C., read-out: KAT6A-DPF/HAT domain IC50 [mol/l] (arithmetic mean)
Method in brief: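 Sf9-expressed human His-Kat6a (aa 194-810) incubated 60 min at 22 °C with compounds (0.01-20 μM) in Tris pH 8 buffer containing 220 nM biotinylated H4 peptide (aa 1-24) and 600 nM acetyl-CoA. Acetyl-K8 detected by TR-FRET (665/620 nm ratio); IC50 by four-parameter fit versus DMSO controls.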

Chain of Recombinant human His-tagged Kat6a protein (amino acids 194-810) (Q92794 194-810): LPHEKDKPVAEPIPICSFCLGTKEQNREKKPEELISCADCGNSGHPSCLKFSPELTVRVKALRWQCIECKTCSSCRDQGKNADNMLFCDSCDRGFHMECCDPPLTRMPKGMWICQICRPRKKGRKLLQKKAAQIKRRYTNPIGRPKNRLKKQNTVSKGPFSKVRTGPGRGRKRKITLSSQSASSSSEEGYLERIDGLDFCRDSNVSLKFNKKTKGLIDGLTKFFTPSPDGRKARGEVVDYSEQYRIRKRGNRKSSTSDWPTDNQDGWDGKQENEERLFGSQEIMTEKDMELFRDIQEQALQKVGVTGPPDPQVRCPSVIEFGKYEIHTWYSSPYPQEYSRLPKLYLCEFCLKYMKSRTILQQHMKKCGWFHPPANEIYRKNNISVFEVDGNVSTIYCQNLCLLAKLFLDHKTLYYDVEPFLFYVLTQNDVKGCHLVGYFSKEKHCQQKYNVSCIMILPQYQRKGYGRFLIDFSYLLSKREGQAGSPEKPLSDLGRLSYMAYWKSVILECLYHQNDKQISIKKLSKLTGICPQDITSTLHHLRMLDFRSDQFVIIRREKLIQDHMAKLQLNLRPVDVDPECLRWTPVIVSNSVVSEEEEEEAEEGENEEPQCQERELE

SMILES	IC50 [2] [µM]	EC50 [3] [µM]	IC50 [4] [µM]	EC50 [1] [M]
CN(C)c1ccc2cc(C(=O)NS(=O)(=O)c3ccccc3)oc2c1 [Example 99, N-(benzenesulfonyl)-6-(dimethylamino)-1-benzofuran-2-carboxamide]	0.672	> 20	0.645	6.63e-07
CCc1ccccc1S(=O)(=O)NC(=O)c1cc2ccc(N(C)C)cc2o1 [Example 104, 6-(Dimethylamino)-N-(2-ethylbenzene-1-sulfonyl)-1-benzofuran-2-carboxamide]	3.19	> 20	1.1	3e-06
Cc1cccnc1CS(=O)(=O)NC(=O)c1cc2ccc(N(C)C)cc2o1 [Example 105, 6-(Dimethylamino)-N-[(3-methylpyridin-2-yl)methanesulfonyl]-1-benzofuran-2-carboxamide]	11.6	> 20	1.96	3.72e-06
Cc1ccc2cccc(S(=O)(=O)NC(=O)c3cc4c(F)cc(N(C)C)cc4o3)c2n1 [Example 108, 6-(Dimethylamino)-4-fluoro-N-(2-methylquinoline-8-sulfonyl)-1-benzofuran-2-carboxamide]	0.0091	> 18.6	0.0046	8.07e-08
CN(C)c1ccc2cc(C(=O)NS(=O)(=O)c3ccc(Br)cc3OC(F)(F)F)oc2c1 [Example 118, N-[4-Bromo-2-(trifluoromethoxy)benzene-1-sulfonyl]-6-(dimethylamino)-1-benzofuran-2-carboxamide]	0.555	> 20	0.0524	9.57e-07
CCOc1nccc(C(F)(F)F)c1S(=O)(=O)NC(=O)c1cc2ccc(N(C)C)cc2o1 [Example 120, 6-(Dimethylamino)-N-[2-ethoxy-4-(trifluoromethyl)pyridine-3-sulfonyl]-1-benzofuran-2-carboxamide]	0.891	> 20	1.85	4.57e-07
CCc1ncnc(OC)c1S(=O)(=O)NC(=O)c1cc2ccc(N(C)C)cc2o1 [Example 131, 6-(Dimethylamino)-N-(4-ethyl-6-methoxypyrimidine-5-sulfonyl)-1-benzofuran-2-carboxamide]	0.325	> 20	0.47	8.31e-07
CCCOc1cccc(C)c1S(=O)(=O)NC(=O)c1cc2ccc(N(C)C)cc2o1 [Example 133, 6-(Dimethylamino)-N-(2-methyl-6-propoxybenzene-1-sulfonyl)-1-benzofuran-2-carboxamide]	0.323	> 20	0.325	4.88e-07
COc1cccc(S(C)(=O)=O)c1S(=O)(=O)NC(=O)c1cc2ccc(N(C)C)cc2o1 [Example 140, 6-(Dimethylamino)-N-[2-(methanesulfonyl)-6-methoxybenzene-1-sulfonyl]-1-benzofuran-2-carboxamide]	9.65	> 20	5.67	7.83e-06
Cc1cccc(Nc2ccncc2S(=O)(=O)NC(=O)c2cc3ccc(N(C)C)cc3o2)c1 [Example 151, 6-(Dimethylamino)-N-[4-(3-methylanilino)pyridine-3-sulfonyl]-1-benzofuran-2-carboxamide]	9.85	> 20	0.234	2.87e-06
CN(C)c1ccc2cc(C(=O)NS(=O)(=O)c3ccc(N)c4cccnc34)oc2c1 [Example 166, N-(5-Aminoquinoline-8-sulfonyl)-6-(dimethylamino)-1-benzofuran-2-carboxamide]	0.15	6.31	0.0564	1.5e-07
CN(C)c1ccc2cc(C(=O)NS(=O)(=O)c3ccccc3OCCN)oc2c1 [Example 167, N-[2-(2-Aminoethoxy)benzene-1-sulfonyl]-6-(dimethylamino)-1-benzofuran-2-carboxamide hydrogen chloride (1/1)]	9.1	> 20	2.06	9.52e-06

The remaining molecules from weak to strong by IC50 [2], led by results:

IC50 [2] [µM]	EC50 [3] [µM]	IC50 [4] [µM]	SMILES	EC50 [1] [M]
15.4	> 20	0.796	CN(C)c1ccc2cc(C(=O)NS(=O)(=O)c3cc(Br)cnc3Cl)oc2c1 [Example 136]	5.54e-06
8.29	10.2	0.429	CCCNc1ncc(Br)cc1S(=O)(=O)NC(=O)c1cc2ccc(N(C)C)cc2o1 [Example 150, N-[5-bromo-2-(propylamino)pyridine-3-sulfonyl]-6-(dimethylamino)-1-benzofuran-2-carboxamide]	> 2e-05
7.8	> 20	0.351	CCOc1ccc(NC(C)=O)cc1S(=O)(=O)NC(=O)c1cc2ccc(N(C)C)cc2o1 [Example 128, N-(5-Acetamido-2-ethoxybenzene-1-sulfonyl)-6-(dimethylamino)-1-benzofuran-2-carboxamide]	1.49e-06
6.8	> 20	0.438	CC(C)Nc1ncc(Br)cc1S(=O)(=O)NC(=O)c1cc2ccc(N(C)C)cc2o1 [Example 145, N-{5-Bromo-2-[(propan-2-yl)amino]pyridine-3-sulfonyl}-6-(dimethylamino)-1-benzofuran-2-carboxamide]	7.2e-06
5.16	> 20	0.266	CN(C)c1ccc2cc(C(=O)NS(=O)(=O)c3cc(Br)cnc3NC3CC3)oc2c1 [Example 146, N-[5-Bromo-2-(cyclopropylamino)pyridine-3-sulfonyl]-6-(dimethylamino)-1-benzofuran-2-carboxamide]	3.73e-06
4.36	15.1	2.18	Cc1ccc(S(=O)(=O)NC(=O)c2cc3ccc(N(C)C)cc3o2)c(N)n1 [Example 130, N-(2-Amino-6-methylpyridine-3-sulfonyl)-6-(dimethylamino)-1-benzofuran-2-carboxamide]	2.93e-06
2.95	> 20	1.21	COc1cc(S(=O)(=O)NC(=O)c2cc3ccc(N(C)C)cc3o2)cc(Cn2cccn2)c1OC [Example 103, N-{3,4-Dimethoxy-5-[(1H-pyrazol-1-yl)methyl]benzene-1-sulfonyl}-6-(dimethylamino)-1-benzofuran-2-carboxamide]	2.6e-06
2.93	> 20	1.4	COc1ccc(S(=O)(=O)NC(=O)c2cc3ccc(N(C)C)cc3o2)cn1 [Example 152, 6-(Dimethylamino)-N-(6-methoxypyridine-3-sulfonyl)-1-benzofuran-2-carboxamide]	2.16e-06
1.76	> 20	0.317	COc1cccc(S(=O)(=O)N(C)C)c1S(=O)(=O)NC(=O)c1cc2ccc(N(C)C)cc2o1 [Example 141, 6-(Dimethylamino)-N-[2-(dimethylsulfamoyl)-6-methoxybenzene-1-sulfonyl]-1-benzofuran-2-carboxamide]	1.92e-06
1.47	> 20	0.489	CCc1ccc(Cn2cccn2)cc1S(=O)(=O)NC(=O)c1cc2ccc(N(C)C)cc2o1 [Example 102, 6-(Dimethylamino)-N-{2-ethyl-5-[(1H-pyrazol-1-yl)methyl]benzene-1-sulfonyl}-1-benzofuran-2-carboxamide]	1.95e-06
0.974	> 20	0.177	Cc1cc(Cn2cccn2)cc(S(=O)(=O)NC(=O)c2cc3ccc(N(C)C)cc3o2)c1C [Example 100]	1.12e-06
0.453	> 20	0.252	CCOc1c(Cl)cccc1S(=O)(=O)NC(=O)c1cc2ccc(N(C)C)cc2o1 [Example 122, N-(3-Chloro-2-ethoxybenzene-1-sulfonyl)-6-(dimethylamino)-1-benzofuran-2-carboxamide]	9.44e-07
0.00967	> 20	0.00709	CC(C)Oc1ccccc1S(=O)(=O)NC(=O)c1cc2c(F)cc(N(C)C)cc2o1 [Example 109, 6-(Dimethylamino)-4-fluoro-N-{2-[(propan-2-yl)oxy]benzene-1-sulfonyl}-1-benzofuran-2-carboxamide]	3.7e-08
